Experimental data reported in patent US10478431B2, “Methods for treating a cytomegalovirus infection” (priority 2014, dated 2019).
Entries after “also recorded” stand apart in the source; their conditions may differ. Structures can show the parent of a compound that is named as a salt.

How the values were obtained:
[1] = system: IE2 negative feedback (LM2ig "low" cells); test: LM2ig "low" drug screen (4 day induction, high throughput flow cytometry); assay type: cell-based, human CMV (hCMV); conditions: induction period of 4 days, FIG. 9
Experimental: LM2ig “low” cells (˜0% GFP positive before induction) were treated with agents in duplicate for an induction period of 4 days. During this induction period, the cell culture medium was not changed; images were taken every day for 4 days. On the final day, high throughput flow cytometry was carried out on FACS IntelliCyt. Agents tested were: Hoechst 33258, Hoechst 33342, VPA, TSA, TNF-α, hexamethylene bisacetamide (HMBA), phorbol myristate acetate (PMA), neotroposin, distamycin, DAPI, gemcitabine, prednisolone, suberanilohydroxamic acid (SAHA), (2E)-N-hydroxy-3-[4-({[2-(2-methyl-1H-indol-3-yl)ethyl]amino}methyl)phenyl]acrylamide (panobinostat), thapsigargin, JQ1, prostratin, dimizane acetate, pentamidine, or bendamustine.

[2] = system: latent CMV in N-Tera2 cells; test: N-Tera2 latency assay (reactivation of latent CMV); assay type: cell-based, human CMV (hCMV); conditions: FIG. 4 lower panel, trihydrochloride hydrate
Experimental: Reactivation of latent CMV in N-Tera2 cells was conducted as previously described in (Meier, 2001).

HCMV = HCMV infection across a range of virus concentrations, 10 days post-infection; assay type: cell-based, human CMV (hCMV); conditions: wide range of virus concentrations, FIG. 23
Description: All time points were taken at 10 days post-infection as described in Teng et al. Cell 2012 (cited herein).

Smith strain of MCMV = test: Murine CMV replication kinetics in BALB/c mice; assay type: in vivo
Experimental: Murine CMV (MCMV) replication kinetics were performed in BALB/c mice using the Smith strain of MCMV as previously described (Orr et al., 2010) and on NIH 3T3 cells using same methods as for HCMV. Rhesus CMV (RhCMV) viral replication kinetics were performed on rhesus fibroblast cells as described in (Lilja et al., 2008).

[3] = system: CRS sequences (tetranucleotide motif TTTA); test: bisBenzimide binding assay (fluorescence) with CRS sequences; parameters: species or system hCMV; conditions: CRS sequence 10 μM, BB33258 10 μM to 1 nM, room temperature, DPBS; FIGS. 15 and 16; trihydrochloride hydrate
Experimental: Serial dilutions for each CRS sequence were prepared. Each CRS sequence was held constant at 10 μM while BB33258 was titrated from 10 μM to 1 nM. All assays were performed at room temperature (˜25° C. in DPBS). Serial dilutions were pipetted into 96-well glass bottom plate and allowed to equilibrate for 3 hours at room temperature in the dark. Plates were then assayed for fluorescence intensity using Perkin-Elmer EnSpyre multimode plate reader. Scans from 370 nm to 580 nm for each sequence were obtained. Dilution concentrations and BB33258 combinations that saturated the PMT were excluded.

IE2 = test: Quantitative Western blot of IE2; assay type: cell-based, human CMV (hCMV); conditions: with increasing Hoechst 33258 exposure
Experimental: Cell monolayers were rinsed in PBS buffer, and cells from each well were scraped into 50 μl A of RIPA buffer and stored at −80° C. For analysis, samples were thawed and quantitated for total protein content using a modified Lowry assay (BioRad DC protein assay kit). Equivalent amounts of total protein (10 μg) were added to appropriate volumes of 4× sample loading buffer (50 mM Tris-HCl pH 6.8, 2% sodium docecyl sulfate (SDS), 10% glycerol, 1% beta-mercaptoethanol, 12.5 mM EDTA, and 0.02% bromophenol blue) and heated at 95° C. for 5 minutes. Protein samples were loaded and separated on precast SDS polyacrylamide gel electrophoresis (PAGE) 10% or 7.5% bisacrylamide gels (BioRad). Protein transfer and blot preparation were handled as previously described (Bolovan-Fritts et al., 2004). For detection of protein bands, primary mouse monoclonal antibody against a shared epitope present in IE1 and IE2 at 1:100 (MAB810, Millipore). Beta tubulin was used as a normalization marker, and detected by a primary rabbit anti-beta tubulin antibody (926-42211, LiCor) used at a dilution of 1:2000. The secondary antibody for IE2 detection used was a donkey anti-mouse conjugated to IR dye 800CW (926-32212, LiCor) at a dilution of 1:20,000. […] Blots were scanned using a LiCor Odyssey Infrared Imaging system and software analysis for quantitation.

[4] = system: IE2 circuit in clinically derived CMV isolate TB40E; test: Flow cytometry of TB40E infected ARPE cells; assay type: cell-based, human CMV (hCMV); conditions: 17 h and 20 h post infection, FIG. 21
Experimental: Flow cytometry was performed on TB40E infected ARPE cells at 17 h and 20 h post infection. The data was analyzed as described in Teng et al. Cell 2012, cited herein.

[5] = system: ARPE-19 cells stably transduced with LM2ig; test: Viability of ARPE-19 cells stably transduced with LM2ig; assay type: cell-based; conditions: FIG. 1, FIG. 2
Experimental: MRCS fibroblasts and life-extended human foreskin fibroblasts (HFFs) (Bresnahan and Shenk, 2000) were maintained in Dulbecco's Modified Eagle's Medium (DMEM) supplemented with 10% fetal bovine serum (FBS) and 50 U/ml penicillin-streptomycin at 37° C. and 5% CO2 in a humidified incubator. ARPE-19 cells were maintained in a 1:1 mixture of DMEM/F-12 (Mediatech Inc.) with 10% FBS (HyClone) and 50 U/ml Penicillin-Streptomycin (Mediatech Inc.). Cells were treated with a final concentration of 1 mM valproic acid (VPA) (Calbiochem™), resuspended in dimethylsulfoxide, for approximately 24 hours before imaging. Cells were treated with a final concentration of 400 nM TSA (Sigma-Aldrich) resuspended in dimethylsulfoxide, for 20-24 hours, a final concentration of 10 ng/mL TNF-α (Sigma-Aldrich) resuspended in phosphate-buffered saline (PBS), or a final concentration of 1 mM VPA (Calbiochem) for approximately 24 hours before imaging.
Standard lentiviral cloning was used to create minimal major immediate early (MIE) circuits (Dull et al., 1998). The minimal MIEP-IE2-GFP and MIEP-GFP circuits are driven by a full-length ˜2.5 kb MIE promoter-enhancer (MIEP) that spans the sequence from the MIEP modulator at the 5′ edge to the junction of immediate early (IE) exons 1 and 2. The MIEP was polymerase chain reaction (PCR)-cloned from AD169 into pLEIGW in place of the EF1a promoter. This full-length MIEP drives an IE2-IRES-GFP or mCherry-IRES-GFP cassette. IE2 was cloned from pRSV-IE86 (a gift from Jay Nelson). ARPE-19 cells were infected and fluorescence-activated cell sorter (FACS) sorted for green fluorescent protein (GFP) fluorescence to create stably expressing cell lines. Cells were treated with Trichostatin-A (TSA) for 17 hours, and GFP expression was quantified by flow cytometry. Live cells were gated by forward-versus-side scattering on a FacsCalibur™ cytometer (BD Biosciences) and mean fluorescence intensity recorded. At least 20,000 live cells were recorded for each experiment and data was analyzed in FlowJo™ (Treestar Inc.).

CN1CCN(c2ccc3[nH]c(-c4ccc5[nH]c(-c6ccc(O)cc6)nc5c4)nc3c2)CC1 [Hoechst 33258, 2′-(4-hydroxyphenyl)-5-(4-methyl-1-piperazinyl)-2,5′-bi-1H-benzimidazole trihydrochloride hydrate]
breaking of the IE2 negative feedback (geometric mean of GFP) [1]: specifically break the IE2 negative feedback | reactivation of latent CMV [2]: reactivated latent CMV; also recorded: reactivation of latent HCMV | HCMV infection (HCMV): inhibits HCMV infection across a wide range of virus concentrations | reduction of mCMV replication (Smith strain of MCMV): ~5 fold | DNA binding specificity (motif) [3]: binds primarily to a specific tetranucleotide motif (TTTA) | IE2 levels (quantitative Western blot) (IE2): increase | IE2 circuit / IE2 expression levels [4]: breaks the IE2 circuit and amplifies IE2 expression levels | cell viability / cytotoxicity [5]: reduced cell viability
